In patent US11078170B2 (Assembly Biosciences, Inc., priority 2017, dated 2021):

tested on: HBV viral production from HepAD38 cells; test: Activity of test compounds on viral production from HepAD38 cells (viral load by qPCR of HBV core sequence in supernatant); type: cell-based; details: Hepatitis B virus, 120 h, 5 days incubation, HBV DNA in supernatant by qPCR, top concentration 10 μM, read-out: Viral Load EC50 Activity range
How it was run: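 EC50 and CC50 come from four-parameter fits of supernatant viral load and CellTiter-Glo viability, respectively. Viral load was measured by core-region TaqMan qPCR against HBV DNA standards and compared with DMSO controls. Tet-free HepAD38 cells (50,000/well, 2% FBS) were exposed to compound, highest 10 μM, for 5 days at 37° C.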

| Structure (SMILES) | EC50 [nM] |
| --- | --- |
| CN1[C@@H](C(=O)Nc2ccc(F)c(Cl)c2)C[C@@H](c2ccc(-c3cnn(CCO)c3)s2)NS1(=O)=O [HBV-CSU-293-ISO-II, Cis-N-(3-chloro-4-fluorophenyl)-5-(5-(1-(2-hydroxyethyl)-1H-pyrazol-4-yl)thiophen-2-yl)-2-methyl-1,2,6-thiadiazinane-3-carboxamide 1,1-dioxide] | > 5000 |
| CCn1cc(-c2csc([C@H]3C[C@@H](C(=O)Nc4ccc(F)c(Cl)c4)N(C)S(=O)(=O)N3)c2)cn1 [HBV-CSU-294-ISO-I, Cis-N-(3-chloro-4-fluorophenyl)-5-(4-(1-ethyl-1H-pyrazol-4-yl)thiophen-2-yl)-2-methyl-1,2,6-thiadiazinane-3-carboxamide 1,1-dioxide] | < 1000 |
| CCn1cc(-c2csc([C@@H]3C[C@H](C(=O)Nc4ccc(F)c(Cl)c4)N(C)S(=O)(=O)N3)c2)cn1 [HBV-CSU-294-ISO-II, Cis-N-(3-chloro-4-fluorophenyl)-5-(4-(1-ethyl-1H-pyrazol-4-yl)thiophen-2-yl)-2-methyl-1,2,6-thiadiazinane-3-carboxamide 1,1-dioxide] | 1000 to 5000 |
| CC(C)n1cc(-c2csc([C@H]3C[C@@H](C(=O)Nc4ccc(F)c(Cl)c4)N(C)S(=O)(=O)N3)c2)cn1 [HBV-CSU-295-ISO-I, Cis-N-(3-chloro-4-fluorophenyl)-5-(4-(1-isopropyl-1H-pyrazol-4-yl)thiophen-2-yl)-2-methyl-1,2,6-thiadiazinane-3-carboxamide 1,1-dioxide] | < 1000 |
| CC(C)n1cc(-c2csc([C@@H]3C[C@H](C(=O)Nc4ccc(F)c(Cl)c4)N(C)S(=O)(=O)N3)c2)cn1 [HBV-CSU-295-ISO-II, Cis-N-(3-chloro-4-fluorophenyl)-5-(4-(1-isopropyl-1H-pyrazol-4-yl)thiophen-2-yl)-2-methyl-1,2,6-thiadiazinane-3-carboxamide 1,1-dioxide] | 1000 to 5000 |
| CN1[C@H](C(=O)Nc2ccc(F)c(Cl)c2)C[C@H](c2cc(-c3cnn(CCO)c3)cs2)NS1(=O)=O [HBV-CSU-296-ISO-I, Cis-N-(3-chloro-4-fluorophenyl)-5-(4-(1-(2-hydroxyethyl)-1H-pyrazol-4-yl)thiophen-2-yl)-2-methyl-1,2,6-thiadiazinane-3-carboxamide 1,1-dioxide] | < 1000 |
| CN1[C@@H](C(=O)Nc2ccc(F)c(Cl)c2)C[C@@H](c2cc(-c3cnn(CCO)c3)cs2)NS1(=O)=O [HBV-CSU-296-ISO-II, Cis-N-(3-chloro-4-fluorophenyl)-5-(4-(1-(2-hydroxyethyl)-1H-pyrazol-4-yl)thiophen-2-yl)-2-methyl-1,2,6-thiadiazinane-3-carboxamide 1,1-dioxide] | 1000 to 5000 |
| Cc1cc([C@@H]2C[C@H](C(=O)Nc3ccc(F)c(Cl)c3)N(C)S(=O)(=O)N2)sc1-c1cnn(C)c1 [HBV-CSU-300-ISO-II, Cis-N-(3-Chloro-4-fluorophenyl)-5-(4-methyl-5-(1-methyl-1H-pyrazol-4-yl)thiophen-2-yl)-2-methyl-1,2,6-thiadiazinane-3-carboxamide 1,1-dioxide] | > 5000 |
| CN1[C@H](C(=O)Nc2ccc(F)c(Cl)c2)C[C@H](c2cc(Cl)c(-c3cnn(C)c3)s2)NS1(=O)=O [HBV-CSU-302-ISO-I, Cis-N-(3-Chloro-4-fluorophenyl)-5-(4-chloro-5-(1-methyl-1H-pyrazol-4-yl)thiophen-2-yl)-2-methyl-1,2,6-thiadiazinane-3-carboxamide 1,1-dioxide] | < 1000 |
| CN1[C@@H](C(=O)Nc2ccc(F)c(Cl)c2)C[C@@H](c2cc(Cl)c(-c3cnn(C)c3)s2)NS1(=O)=O [HBV-CSU-302-ISO-II, Cis-N-(3-Chloro-4-fluorophenyl)-5-(4-chloro-5-(1-methyl-1H-pyrazol-4-yl)thiophen-2-yl)-2-methyl-1,2,6-thiadiazinane-3-carboxamide 1,1-dioxide] | > 5000 |
| Cc1sc([C@H]2C[C@@H](C(=O)Nc3ccc(F)c(Cl)c3)N(C)S(=O)(=O)N2)cc1-c1cnn(C)c1 [HBV-CSU-304-ISO-I, Cis-N-(3-Chloro-4-fluorophenyl)-2-methyl-5-(5-methyl-4-(1-methyl-1H-pyrazol-4-yl)thiophen-2-yl)-1,2,6-thiadiazinane-3-carboxamide 1,1-dioxide] | < 1000 |
| Cc1sc([C@@H]2C[C@H](C(=O)Nc3ccc(F)c(Cl)c3)N(C)S(=O)(=O)N2)cc1-c1cnn(C)c1 [HBV-CSU-304-ISO-II, Cis-N-(3-Chloro-4-fluorophenyl)-2-methyl-5-(5-methyl-4-(1-methyl-1H-pyrazol-4-yl)thiophen-2-yl)-1,2,6-thiadiazinane-3-carboxamide 1,1-dioxide] | > 5000 |
| CCc1sc([C@H]2C[C@@H](C(=O)Nc3ccc(F)c(Cl)c3)N(C)S(=O)(=O)N2)cc1-c1cnn(C)c1 [HBV-CSU-305-ISO-I, Cis-N-(3-Chloro-4-fluorophenyl)-5-(5-ethyl-4-(1-methyl-1H-pyrazol-4-yl)thiophen-2-yl)-2-methyl-1,2,6-thiadiazinane-3-carboxamide 1,1-dioxide] | < 1000 |
| CCc1sc([C@@H]2C[C@H](C(=O)Nc3ccc(F)c(Cl)c3)N(C)S(=O)(=O)N2)cc1-c1cnn(C)c1 [HBV-CSU-305-ISO-II, Cis-N-(3-Chloro-4-fluorophenyl)-5-(5-ethyl-4-(1-methyl-1H-pyrazol-4-yl)thiophen-2-yl)-2-methyl-1,2,6-thiadiazinane-3-carboxamide 1,1-dioxide] | 1000 to 5000 |
| CN1[C@H](C(=O)Nc2ccc(F)c(Cl)c2)C[C@H](c2cc(-c3cnn(C)c3)c(Cl)s2)NS1(=O)=O [HBV-CSU-306-ISO-I, Cis-5-(5-chloro-4-(1-methyl-1-pyrazol-4-yl)thiophen-2-yl)-N-(3-chloro-4-fluorophenyl)-2-methyl-1,2,6-thiadiazinane-3-carboxamide 1,1-dioxide] | < 1000 |
| CN1[C@@H](C(=O)Nc2ccc(F)c(Cl)c2)C[C@@H](c2cc(-c3cnn(C)c3)c(Cl)s2)NS1(=O)=O [HBV-CSU-306-ISO-II, Cis-5-(5-chloro-4-(1-methyl-1-pyrazol-4-yl)thiophen-2-yl)-N-(3-chloro-4-fluorophenyl)-2-methyl-1,2,6-thiadiazinane-3-carboxamide 1,1-dioxide] | > 5000 |
| Cc1c(-c2ccc([C@H]3C[C@@H](C(=O)Nc4ccc(F)c(Cl)c4)N(C)S(=O)(=O)N3)s2)cnn1C [HBV-CSU-312-ISO-I, Cis-N-(3-chloro-4-fluorophenyl)-5-(5-(1,5-dimethyl-1H-pyrazol-4-yl)thiophen-2-yl)-2-methyl-1,2,6-thiadiazinane-3-carboxamide 1,1-dioxide] | < 1000 |
| Cc1c(-c2ccc([C@@H]3C[C@H](C(=O)Nc4ccc(F)c(Cl)c4)N(C)S(=O)(=O)N3)s2)cnn1C [HBV-CSU-312-ISO-II, Cis-N-(3-chloro-4-fluorophenyl)-5-(5-(1,5-dimethyl-1H-pyrazol-4-yl)thiophen-2-yl)-2-methyl-1,2,6-thiadiazinane-3-carboxamide 1,1-dioxide] | 1000 to 5000 |
| Cc1nn(C)cc1-c1ccc([C@H]2C[C@@H](C(=O)Nc3ccc(F)c(Cl)c3)N(C)S(=O)(=O)N2)s1 [HBV-CSU-313-ISO-I, Cis-N-(3-chloro-4-fluorophenyl)-5-(5-(1,3-dimethyl-1H-pyrazol-4-yl)thiophen-2-yl)-2-methyl-1,2,6-thiadiazinane-3-carboxamide 1,1-dioxide] | < 1000 |
